Reference: BindingDB's records for doi:10.1016/0960-894X(96)00297-1 (1996)

Biological target: Endothelin-converting enzyme 1 (Cavia porcellus)
Assay: In vitro inhibition of phosphoramidon-sensitive membrane bound zinc metalloprotease Endothelin-converting enzyme from partially purified guinea pig lungs

Row | Compound | IC50
1 | COc1ccc(C(=O)N[C@@H](Cc2ccccc2)P(=O)(O)CC2(C(=O)N[C@@H](Cc3c[nH]c4ccccc34)C(=O)O)CCCC2)cc1 [(S)-2-[(1-{Hydroxy-[(R)-1-(4-methoxy-benzoylamino)-2-phenyl-ethyl]-phosphinoylmethyl}-cyclopentanecarbonyl)-amino]-3-(1H-indol-3-yl)-propionic acid] | 160 nM
2 | O=C(N[C@@H](Cc1ccccc1)P(=O)(O)CC1(C(=O)N[C@@H](Cc2ccc(O)cc2)C(=O)O)CCCC1)OCc1ccccc1 [(S)-2-({1-[((R)-1-Benzyloxycarbonylamino-2-phenyl-ethyl)-hydroxy-phosphinoylmethyl]-cyclopentanecarbonyl}-amino)-3-(4-hydroxy-phenyl)-propionic acid] | 120 nM
3 | NC(=O)C[C@H](NC(=O)C1(CP(=O)(O)[C@H](Cc2ccccc2)NC(=O)OCc2ccccc2)CCCC1)C(=O)O [(S)-2-({1-[((R)-1-Benzyloxycarbonylamino-2-phenyl-ethyl)-hydroxy-phosphinoylmethyl]-cyclopentanecarbonyl}-amino)-succinamic acid] | > 1000 nM
4 | O=C(N[C@H](Cc1ccccc1)P(=O)(O)CC1(C(=O)N[C@@H](Cc2c[nH]c3ccccc23)C(=O)O)CCCC1)OCc1ccccc1 [(S)-2-({1-[((S)-1-Benzyloxycarbonylamino-2-phenyl-ethyl)-hydroxy-phosphinoylmethyl]-cyclopentanecarbonyl}-amino)-3-(1H-indol-3-yl)-propionic acid] | > 10000 nM
5 | CC(C)C[C@H](NP(=O)(O)O)C(=O)N[C@@H](Cc1c[nH]c2ccccc12)C(=O)O [(S)-3-(1H-Indol-3-yl)-2-((S)-4-methyl-2-phosphonoamino-pentanoylamino)-propionic acid] | 1500 nM

More lines, now with the values ahead:

Row | IC50 | Compound
6 | 90 nM | NCc1ccc(C(=O)N[C@@H](Cc2ccccc2)P(=O)(O)CC2(C(=O)N[C@@H](Cc3c[nH]c4ccccc34)C(=O)O)CCCC2)cc1 [(S)-2-[(1-{[(R)-1-(4-Aminomethyl-benzoylamino)-2-phenyl-ethyl]-hydroxy-phosphinoylmethyl}-cyclopentanecarbonyl)-amino]-3-(1H-indol-3-yl)-propionic acid]
7 | 190 nM | O=C(N[C@@H](Cc1ccccc1)P(=O)(O)CC1(C(=O)N[C@@H](Cc2c[nH]c3ccccc23)C(=O)O)CCCC1)OCc1ccccc1 [(S)-2-({1-[((R)-1-Benzyloxycarbonylamino-2-phenyl-ethyl)-hydroxy-phosphinoylmethyl]-cyclopentanecarbonyl}-amino)-3-(1H-indol-3-yl)-propionic acid]
8 | 600 nM | CC(=O)N[C@@H](Cc1ccccc1)P(=O)(O)CC1(C(=O)N[C@@H](Cc2c[nH]c3ccccc23)C(=O)O)CCCC1 [(S)-2-({1-[((R)-1-Acetylamino-2-phenyl-ethyl)-hydroxy-phosphinoylmethyl]-cyclopentanecarbonyl}-amino)-3-(1H-indol-3-yl)-propionic acid]
9 | 250 nM | O=C(N[C@@H](Cc1ccccc1)P(=O)(O)CC1(C(=O)N[C@@H](Cc2c[nH]c3ccccc23)C(=O)O)CCCC1)c1ccccc1 [(S)-2-({1-[((R)-1-Benzoylamino-2-phenyl-ethyl)-hydroxy-phosphinoylmethyl]-cyclopentanecarbonyl}-amino)-3-(1H-indol-3-yl)-propionic acid]
10 | 550 nM | CC(C)(C)C(=O)N[C@@H](Cc1ccccc1)P(=O)(O)CC1(C(=O)N[C@@H](Cc2c[nH]c3ccccc23)C(=O)O)CCCC1 [(S)-2-[(1-{[(R)-1-(2,2-Dimethyl-propionylamino)-2-phenyl-ethyl]-hydroxy-phosphinoylmethyl}-cyclopentanecarbonyl)-amino]-3-(1H-indol-3-yl)-propionic acid]
